Results as given in PMC10111164, “Artemis inhibition as a therapeutic strategy for acute lymphoblastic leukemia” (Frontiers in Cell and Developmental Biology, 2023).

Columns and labels:
[1] = tested on: Normal mature B cell lines 3301015 and 5680001; assay: Viability of normal mature B cell lines by annexin V/DAPI flow cytometry, day 3; format: cell-based, human; conditions: one or both B-cell lines, 1–20 μM, 3 days
Method: Normal mature human B cell lines, immortalized lymphoblastoid cell lines 3301015 and 5680001, were generated using EBV-transformation of peripheral blood from patients with no hematopoietic abnormalities.
(§1) Lentivirally green fluorescence protein (GFP) labeled patient-derived B-ALL cells (LAX56, BLQ5, LAX7R) or mature B cell lines 3301015 and 5680001 were plated on irradiated murine stromal OP9 cells and treated with four compounds optimized for Artemis inhibition (827171, 827032, 826941, 825226) (provided by Curia Global Inc., as part of the NCI NExT Program). These compounds ranged in KD binding affinity to Artemis from 20 to 150 nM. […] Proliferation was determined by measuring the green fluorescence intensity per image (9 images were captured per well) by Incucyte every 8 h for 3 days. Raw values were normalized to the zero-time DMSO control. On day 3, viability of the treated cells was determined by annexin V/DAPI staining via flow cytometry.
FIGURE 4 Artemis inhibitors and DNA-PK inhibitors effect on viability of normal mature B cell lines. […] On day three, mature B cells were collected and used for flow cytometry analysis with PE Annexin V and DAPI to measure % viability (PE Annexin V-/DAPI-). The % viability (Ann V-/DAPI-) is depicted. […]

[2] = tested on: Primary patient-derived B-ALL cells (BLQ5, LAX56, and LAX7R); assay: Proliferation of GFP-labeled B-ALL cells on OP9 cells (Incucyte green fluorescence); format: cell-based, human
Method: as §1
Based on these viability studies, we next tested the compounds for their effect on proliferation. […] Ideally, normal B-cell lines would continue to proliferate upon Artemis inhibition and only B-ALL cell lines would be inhibited due to chromosome breaks. […] Increasing green fluorescence intensity is indicative of proliferation as measured by Incucyte every 8 h. […]
Primary B-ALL cells (BLQ5, LAX56, and LAX7R) were transduced with GFP, and 100,000 cells were plated in 24-well plates seeded with irradiated OP9 cells. […] Green fluorescence intensity was measured by Incucyte every 8 h. […]

[3] = tested on: patient-derived B-ALL cells (BLQ5, LAX56 and LAX7R); assay: Viability of B-ALL cells by annexin V/DAPI flow cytometry, day 3; format: cell-based, human; conditions: all three B-ALL cells (BLQ5, LAX56, LAX7R), 3 days
Method: as §1
On day three, primary B-ALL cells were collected and used for flow cytometry analysis with PE Annexin V and DAPI to measure % viability (PE Annexin V-/DAPI-). The statistical analysis of viability differences is compared to DMSO control: ns: non-significant; *p < 0.05; **p < 0.001; ***p < 0.0001, one-way ANOVA.

[4] = tested on: Mature B cell lines (3301015 and 5680001); assay: Proliferation of GFP-labeled mature B cell lines on OP9 cells (Incucyte green fluorescence); format: cell-based, human
Method: as §1
Based on these viability studies, we next tested the compounds for their effect on proliferation. […] Ideally, normal B-cell lines would continue to proliferate upon Artemis inhibition and only B-ALL cell lines would be inhibited due to chromosome breaks. Primary patient-derived B-ALL cells (BLQ5, LAX56, and LAX7R) were transduced with GFP and 100,000 cells were plated in 24-well plates seeded with irradiated OP9 cells. Increasing green fluorescence intensity is indicative of proliferation as measured by Incucyte every 8 h. […] The mature B cell line proliferation is slow enough that it appears relatively flat in the proliferation assays, but the cells do increase in number (Supplementary Figure S2). Compared to B-ALL cells which grow as single cells (Supplementary Figure S3A–F), the mature B-cell lines grow in clusters and the measurement of total intensity per image is a potential caveat and may not capture this growth (Supplementary Figure S3G–J).
Mature B cell lines (3301015 and 5680001) were transduced with GFP, and 100,000 cells were plated in 24-well plates seeded with irradiated OP9 cells. […] Green fluorescence intensity was measured by Incucyte every 8 h. Raw values were normalized to the 0 h DMSO control. The dashed lines indicate the mean of the final time point measurements of the DMSO control for each mature B cell line.

[5] = biological target: T1, purified full-length human Artemis with DNA-PKcs (Homo sapiens, UniProt Q96SD1); assay: Biochemical Artemis catalytic activity assay (FAM hairpin DNA cleavage, fluorescence)
T1 construct: Artemis activity assay was developed using full length Artemis with DNA-PKcs; made in house
T1 sequence (Q96SD1 whole entry): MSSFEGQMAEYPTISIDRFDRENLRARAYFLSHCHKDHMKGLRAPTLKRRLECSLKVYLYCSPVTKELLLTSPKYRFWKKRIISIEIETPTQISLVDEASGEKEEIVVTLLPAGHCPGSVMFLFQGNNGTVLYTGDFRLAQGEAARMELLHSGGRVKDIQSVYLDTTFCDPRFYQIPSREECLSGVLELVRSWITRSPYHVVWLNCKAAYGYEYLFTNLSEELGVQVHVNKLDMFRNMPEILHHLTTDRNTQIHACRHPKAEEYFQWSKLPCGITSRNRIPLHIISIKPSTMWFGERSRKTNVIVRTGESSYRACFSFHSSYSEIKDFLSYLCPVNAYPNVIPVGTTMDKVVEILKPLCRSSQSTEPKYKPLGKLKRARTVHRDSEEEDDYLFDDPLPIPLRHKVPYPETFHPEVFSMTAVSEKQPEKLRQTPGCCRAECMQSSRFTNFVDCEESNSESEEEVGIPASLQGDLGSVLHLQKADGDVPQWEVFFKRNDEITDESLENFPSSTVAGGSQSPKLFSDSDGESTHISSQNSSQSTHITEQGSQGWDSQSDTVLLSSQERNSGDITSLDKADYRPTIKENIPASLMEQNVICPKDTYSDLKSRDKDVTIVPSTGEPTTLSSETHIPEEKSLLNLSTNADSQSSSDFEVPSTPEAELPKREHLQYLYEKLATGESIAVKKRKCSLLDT
T1 sequence (P78527 whole entry partner): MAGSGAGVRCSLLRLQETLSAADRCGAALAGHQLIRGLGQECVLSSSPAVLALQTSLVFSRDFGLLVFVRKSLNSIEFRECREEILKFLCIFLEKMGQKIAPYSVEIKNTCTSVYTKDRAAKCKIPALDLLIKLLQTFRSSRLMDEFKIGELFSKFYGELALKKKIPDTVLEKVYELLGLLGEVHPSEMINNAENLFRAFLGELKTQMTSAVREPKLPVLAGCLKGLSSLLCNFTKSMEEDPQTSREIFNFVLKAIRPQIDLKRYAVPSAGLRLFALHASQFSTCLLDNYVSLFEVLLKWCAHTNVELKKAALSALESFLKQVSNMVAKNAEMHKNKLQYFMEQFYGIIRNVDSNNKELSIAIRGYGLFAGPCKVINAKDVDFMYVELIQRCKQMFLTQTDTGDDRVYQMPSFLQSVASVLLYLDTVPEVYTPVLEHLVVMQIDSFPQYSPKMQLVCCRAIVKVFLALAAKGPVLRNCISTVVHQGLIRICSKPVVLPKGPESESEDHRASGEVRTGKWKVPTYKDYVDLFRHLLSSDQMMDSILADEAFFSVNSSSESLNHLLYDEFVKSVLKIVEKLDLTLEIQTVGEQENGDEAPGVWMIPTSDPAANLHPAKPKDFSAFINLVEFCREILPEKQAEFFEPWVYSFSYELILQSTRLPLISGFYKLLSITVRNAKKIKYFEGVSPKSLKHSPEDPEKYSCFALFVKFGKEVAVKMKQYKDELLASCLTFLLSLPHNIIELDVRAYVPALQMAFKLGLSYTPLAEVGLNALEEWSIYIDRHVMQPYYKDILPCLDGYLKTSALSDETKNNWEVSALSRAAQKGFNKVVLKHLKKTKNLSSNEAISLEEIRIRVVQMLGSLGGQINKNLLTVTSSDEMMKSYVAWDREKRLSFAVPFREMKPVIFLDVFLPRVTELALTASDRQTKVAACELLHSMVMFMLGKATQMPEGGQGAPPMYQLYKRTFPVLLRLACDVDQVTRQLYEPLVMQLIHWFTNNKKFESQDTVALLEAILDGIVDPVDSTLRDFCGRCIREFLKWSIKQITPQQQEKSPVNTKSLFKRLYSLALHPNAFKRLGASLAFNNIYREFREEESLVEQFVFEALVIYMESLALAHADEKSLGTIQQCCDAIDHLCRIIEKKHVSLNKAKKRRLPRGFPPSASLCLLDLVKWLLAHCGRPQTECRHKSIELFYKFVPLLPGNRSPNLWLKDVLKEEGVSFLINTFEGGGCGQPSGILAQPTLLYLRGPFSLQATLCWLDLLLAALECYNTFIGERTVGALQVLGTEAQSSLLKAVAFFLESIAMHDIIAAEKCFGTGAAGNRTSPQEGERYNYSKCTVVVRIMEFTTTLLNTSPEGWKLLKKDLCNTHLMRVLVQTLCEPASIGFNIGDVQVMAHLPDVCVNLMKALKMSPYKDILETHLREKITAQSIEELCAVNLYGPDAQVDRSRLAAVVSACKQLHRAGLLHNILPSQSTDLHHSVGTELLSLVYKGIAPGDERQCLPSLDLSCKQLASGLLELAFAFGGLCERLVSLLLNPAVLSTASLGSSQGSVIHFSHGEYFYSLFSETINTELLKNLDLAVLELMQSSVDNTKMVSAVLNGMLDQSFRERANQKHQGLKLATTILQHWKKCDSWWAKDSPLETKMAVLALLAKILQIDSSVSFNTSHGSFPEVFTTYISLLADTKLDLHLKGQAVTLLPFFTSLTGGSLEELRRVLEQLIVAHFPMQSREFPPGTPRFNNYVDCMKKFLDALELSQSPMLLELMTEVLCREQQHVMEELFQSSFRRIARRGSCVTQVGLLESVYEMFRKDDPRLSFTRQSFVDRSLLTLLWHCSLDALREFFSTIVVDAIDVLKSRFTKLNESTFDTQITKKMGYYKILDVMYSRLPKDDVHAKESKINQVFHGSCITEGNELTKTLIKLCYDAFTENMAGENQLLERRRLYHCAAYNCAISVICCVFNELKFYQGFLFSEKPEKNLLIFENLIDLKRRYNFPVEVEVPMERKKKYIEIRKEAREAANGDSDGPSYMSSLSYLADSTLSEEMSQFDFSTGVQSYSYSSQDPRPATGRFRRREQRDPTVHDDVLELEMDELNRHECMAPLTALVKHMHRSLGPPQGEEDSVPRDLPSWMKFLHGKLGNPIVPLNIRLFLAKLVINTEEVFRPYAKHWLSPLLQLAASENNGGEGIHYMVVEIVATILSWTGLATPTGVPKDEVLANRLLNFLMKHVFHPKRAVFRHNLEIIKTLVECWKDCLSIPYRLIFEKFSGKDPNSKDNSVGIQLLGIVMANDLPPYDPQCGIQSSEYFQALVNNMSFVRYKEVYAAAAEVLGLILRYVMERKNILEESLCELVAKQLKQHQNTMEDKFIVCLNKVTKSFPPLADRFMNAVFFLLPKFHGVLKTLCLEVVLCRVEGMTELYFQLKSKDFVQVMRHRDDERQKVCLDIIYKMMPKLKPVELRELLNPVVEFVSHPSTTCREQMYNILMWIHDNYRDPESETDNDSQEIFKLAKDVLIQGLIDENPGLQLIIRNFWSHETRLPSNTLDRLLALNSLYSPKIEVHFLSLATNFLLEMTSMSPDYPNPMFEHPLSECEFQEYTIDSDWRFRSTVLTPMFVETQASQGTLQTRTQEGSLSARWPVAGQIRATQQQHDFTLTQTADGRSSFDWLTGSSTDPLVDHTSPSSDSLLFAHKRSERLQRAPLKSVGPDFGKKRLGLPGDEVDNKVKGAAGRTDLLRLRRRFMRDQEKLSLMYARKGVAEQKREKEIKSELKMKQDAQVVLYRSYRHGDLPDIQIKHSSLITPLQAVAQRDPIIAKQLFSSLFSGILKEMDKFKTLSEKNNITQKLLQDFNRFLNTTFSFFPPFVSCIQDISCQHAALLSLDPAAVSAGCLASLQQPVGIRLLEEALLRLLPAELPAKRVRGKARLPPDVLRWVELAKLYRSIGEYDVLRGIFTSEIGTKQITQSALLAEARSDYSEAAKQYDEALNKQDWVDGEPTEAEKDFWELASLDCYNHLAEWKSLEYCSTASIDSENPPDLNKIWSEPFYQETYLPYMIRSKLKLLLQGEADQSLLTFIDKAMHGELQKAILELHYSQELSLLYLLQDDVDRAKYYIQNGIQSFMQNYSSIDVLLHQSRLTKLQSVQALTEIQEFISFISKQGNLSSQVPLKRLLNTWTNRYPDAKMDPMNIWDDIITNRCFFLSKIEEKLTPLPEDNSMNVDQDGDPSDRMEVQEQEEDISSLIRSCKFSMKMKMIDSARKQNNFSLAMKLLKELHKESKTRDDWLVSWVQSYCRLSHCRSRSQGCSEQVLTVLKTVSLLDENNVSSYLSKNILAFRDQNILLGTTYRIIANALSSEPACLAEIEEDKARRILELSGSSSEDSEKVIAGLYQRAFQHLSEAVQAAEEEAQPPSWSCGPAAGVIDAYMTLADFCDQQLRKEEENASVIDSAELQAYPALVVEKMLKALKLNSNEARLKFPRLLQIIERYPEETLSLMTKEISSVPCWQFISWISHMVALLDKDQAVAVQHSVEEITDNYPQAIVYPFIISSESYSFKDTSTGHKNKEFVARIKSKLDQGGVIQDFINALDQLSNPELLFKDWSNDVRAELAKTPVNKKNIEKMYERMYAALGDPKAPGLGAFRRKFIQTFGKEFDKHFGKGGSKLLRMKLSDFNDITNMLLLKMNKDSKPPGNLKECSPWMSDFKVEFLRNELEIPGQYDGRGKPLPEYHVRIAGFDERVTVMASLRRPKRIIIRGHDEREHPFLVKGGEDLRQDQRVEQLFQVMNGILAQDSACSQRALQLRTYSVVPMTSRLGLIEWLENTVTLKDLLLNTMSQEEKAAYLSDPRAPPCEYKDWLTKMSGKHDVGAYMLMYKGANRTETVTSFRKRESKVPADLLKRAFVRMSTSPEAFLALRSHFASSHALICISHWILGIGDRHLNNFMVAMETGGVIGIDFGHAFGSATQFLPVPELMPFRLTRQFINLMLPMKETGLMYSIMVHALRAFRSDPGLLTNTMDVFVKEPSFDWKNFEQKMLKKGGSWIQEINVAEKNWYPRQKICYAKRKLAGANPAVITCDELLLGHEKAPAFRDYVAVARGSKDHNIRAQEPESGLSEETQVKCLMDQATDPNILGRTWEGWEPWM
Method: Artemis activity assay was developed using full length Artemis with DNA-PKcs to generate a fluorescent signal from the cleavage of the 5′ 6-FAM modified end of hairpin DNA with a black-hole quencher (3-BHQ) on the 3’ end. The assay buffer used was 25 mM MOPS, pH 7.5, 10 mM MgCl2, 10 mM KCl, 10 μM ATP, 1 mM DTT, 0.05% (w/v) CHAPS with 5 nM FL-Artemis, 5 nM DNA-PKcs, and 200 nM DNA FAM hairpin substrate. The fluorescence signal was monitored kinetically on a Perkin Elmer Envision microplate reader with FITC filters (λ ex = 485 nm, λ em = 520 nm) with 1-min reads for 40 min.
We determined the specificity of the four Artemis inhibiting compounds using a biochemical Artemis activity assay which generates a fluorescent signal from the cleavage of the 5′ 6-FAM modified end of hairpin DNA with a black-hole quencher (3-BHQ) on the 3’ end.
Steps 1, 2, and 3 show the fluorescence assay for cutting of the DNA hairpin substrate by Artems:DNA-Kcs. Artemis activity assay was optimized for development of a fluorescent signal from the cleavage of the 6-FAM modified end of hairpin DNA (to release it from proximity to the BHQ quenching) and monitored kinetically on a Perkin Elmer Envision microplate reader with FITC filters (excitation wavelength = 485 nm, emission wavelength = 520 nm). […]

SMILES | viability (PE Annexin V-/DAPI-) [1] | proliferation (normalized green fluorescence intensity) vs DMSO ([2]; B-ALL cell lines, 5 μM and 10 μM) | proliferation of the three B-ALL lines (Discussion summary) ([2]; three B-ALL lines, 827171 at 1, 5, and 10 µM) | viability (PE Annexin V-/DAPI-) compared to DMSO controls [3] | proliferation (normalized green fluorescence intensity) vs DMSO ([4]; 3301015, 5 μM and 10 µM) | proliferation (normalized green fluorescence intensity) vs DMSO [4]; 5680001 | proliferation (normalized green fluorescence intensity) vs DMSO ([4]; 5680001, 1 or 5 μM) | IC50 ([5]; 5 nM FL-Artemis, 5 nM DNA-PKcs, 200 nM DNA FAM hairpin substrate, 10 μM ATP, 10-point concentration response) [nM] | %Inh at Max ([5]; percent inhibition at maximal tested concentration) [%]
Cc1cc2ncnn2cc1Nc1ncc2c(n1)n(C1CCOCC1)c(=O)n2C [AZD7648] | decrease viability of one or both B-cell lines | inhibited the proliferation | little inhibition | decrease in viability | suppressed proliferation | no significant decreases in proliferation | minor increase in proliferation | – | –
COc1ccc([C@@H](O)c2cc(-c3ncnc4cc(N5CCOCC5)ccc34)c(F)cc2Cl)nn1 [M3814] | – | – | – | – | – | – | – | 3 | 90.2
